Results on 15 compounds are retold here after PMC3447335, “Evaluation of Pseudopteroxazole and Pseudopterosin Derivatives against Mycobacterium tuberculosis and Other Pathogens” (Marine Drugs, 2012).

In brackets after ≈: the same amount, converted by molar mass. Some results are limits rather than exact numbers.

In assay [1] the test system is M. tuberculosis H37Rv (ATCC 27294). Briefly: microbe, parasite or virus in culture. The settings on record: for inhibition at 64 µg/mL / MIC: Mycobacterium tuberculosis; for inhibition at 64 µg/mL: % inhibition at 64 μg/mL, read-out: LORA % inh; for MIC: non-replicating persistent model, read-out: LORA MIC. In kind it is cell-based, Mycobacterium tuberculosis.
In a further assay the test system is Vero cells. Briefly: cells. The settings on record: Chlorocebus sabaeus; for IC50: read-out: Vero cell IC50; for cytotoxicity at 128 µg/mL: read-out: Vero cell (% inh).
In assay [2] the test system is M. tuberculosis H37Rv (ATCC 27294). Briefly: Microplate Alamar blue assay (MABA). Format: cell-based, Mycobacterium tuberculosis. Conditions: for SI (Selectivity Index): (Vero Cell IC50)/(M. tuberculosis MIC); for MIC: Mycobacterium tuberculosis.
Setting [3] is: M. tuberculosis H37Rv (ATCC 27294), replicating, read-out: MABA MIC.

With `CC(C)=CC1CC(C)C2CCC(C)c3c2c1c(C)c1nc(CCC(=O)O)oc31` (centres unmarked) [Compound 31], the inhibition at 64 µg/mL in assay [1] is 99.1%. Further, in the assay on Vero cells, the IC50 stood at 102 µg/mL (≈ 267 µM). The “SI (Selectivity Index)” value in assay [2] is 1.1. The MIC in assay [2] (setting [3]) amounted to 95 µg/mL (≈ 249 µM).
On to `CSCCc1nc2c(C)c3c4c(c2o1)C(C)CCC4C(C)CC3C=C(C)C` (centres unmarked) [Compound 27], for which the inhibition at 64 µg/mL in assay [1] stood at 90%. Further, in the assay with Vero cells, the cytotoxicity at 128 µg/mL was 0% and the IC50 was over 128 µg/mL. Also, the “SI (Selectivity Index)” value in assay [2] is reported as over 1.2. In addition, the MIC in assay [2] (setting [3]) turned out to be 107 µg/mL (≈ 278 µM).
In the case of `CC(C)=CC1CC(C)C2CCC(C)c3c2c1c(C)c1nc(C(C)O)oc31` (centres unmarked) [Compound 29], the inhibition at 64 µg/mL in assay [1] is 99.8%. The IC50 in the assay with Vero cells was 24 µg/mL (≈ 67.9 µM). In assay [2], the “SI (Selectivity Index)” value is reported as 0.5. Further, the MIC in assay [2] (setting [3]) amounted to 53 µg/mL (≈ 150 µM).
On to `CC(C)=CC1CC(C)C2CCC(C)c3c2c1c(C)c1nc(Cc2ccccc2)oc31` (centres unmarked) [Compound 28], for which, in assay [1], the inhibition at 64 µg/mL worked out at 13.7%. The IC50 in the assay with Vero cells amounted to 82 µg/mL (≈ 205 µM). Further, the MIC in assay [2] (setting [3]) was over 128 µg/mL.
In the case of `CC(C)=CC1CC(C)C2CCC(C)c3c2c1c(C)c1nc(CCC(N)=O)oc31` (centres unmarked) [Compound 32], in assay [1], the inhibition at 64 µg/mL is 99%. Moreover, the IC50 in the assay on Vero cells stood at 54 µg/mL (≈ 142 µM). Also, in assay [2], the “SI (Selectivity Index)” value is on record as 1.9. In addition, the MIC in assay [2] (setting [3]) worked out at 29 µg/mL (≈ 76.2 µM).
For the compound `CCC(C)c1nc2c(C)c3c4c(c2o1)C(C)CCC4C(C)CC3C=C(C)C` (centres unmarked) [Compound 26], the inhibition at 64 µg/mL in assay [1] came to 59.1%. Besides, the IC50 with Vero cells is 73 µg/mL (≈ 200 µM). For the same compound, in assay [2] (setting [3]), the MIC is over 103 µg/mL.
For the compound `COc1ccccc1-c1nc2c(C)c3c4c(c2o1)C(C)CCC4C(C)CC3C=C(C)C` (centres unmarked) [Compound 23], the inhibition at 64 µg/mL in assay [1] came out at 83.3%. In addition, the IC50 with Vero cells was found to be 34 µg/mL (≈ 81.8 µM). The MIC in assay [2] (setting [3]) is over 82 µg/mL.
Turning to `COC(=O)CCc1nc2c(C)c3c4c(c2o1)C(C)CCC4C(C)CC3C=C(C)C` (centres unmarked) [Compound 30], the inhibition at 64 µg/mL in assay [1] turned out to be 99.1%. Besides, the MIC in assay [1] was 62 µg/mL (≈ 157 µM); in assay [2] (setting [3]) it was over 128 µg/mL. For the same compound, the IC50 in the assay on Vero cells was 31 µg/mL (≈ 78.4 µM).
As for `NNC(=O)c1ccncc1` [Isoniazid], the “LORA (% inh) in MIC column” value in assay [1] (% inhibition in parentheses, where the MIC exceeds the stated concentration) was 65%. Also, the MIC in assay [1] is over 128 µg/mL; in assay [2] (setting [3]), 0.03 µg/mL (≈ 0.219 µM); in assay [2] (wild-type M. tuberculosis H37Rv, Table 2 experiment, read-out: MABA MIC H37Rv), 0.03 µg/mL (≈ 0.219 µM).
As to `CC(C)=CC1CC(C)C2CCC(C)c3c2c1c(C)c1nc(CC(N)=O)oc31` (centres unmarked) [Compound 33], the inhibition at 64 µg/mL in assay [1] was determined as 97.1%. The IC50 in the assay on Vero cells amounted to 45 µg/mL (≈ 123 µM). Besides, in assay [2], the “SI (Selectivity Index)” value is 0.8. In addition, the MIC in assay [2] (setting [3]) came to 59 µg/mL (≈ 161 µM).
The like results for `CC(C)=CC1CC(C)C2CCC(C)c3c2c1c(C)c1nc(C)oc31` (centres unmarked) [Compound 25] were, in that order, 99%, 12 µg/mL (≈ 37.1 µM), 0.8 and 15 µg/mL (≈ 46.4 µM).
For `CC(C)=C[C@@H]1C[C@H](C)[C@H]2CC[C@H](C)c3c2c1c(C)c1ocnc31` [Compound 22, isopseudopteroxazole], in assay [1], the inhibition at 64 µg/mL amounted to 100% and the MIC turned out to be 44 µg/mL (≈ 142 µM). Also, the IC50 in the assay on Vero cells amounted to 52 µg/mL (≈ 168 µM). For the same compound, the “SI (Selectivity Index)” value in assay [2] is 3.6. Moreover, the MIC in assay [2] (setting [3]) is 14 µg/mL (≈ 45.2 µM).
In the case of `O=[N+]([O-])c1cn2c(n1)OC[C@@H](OCc1ccc(OC(F)(F)F)cc1)C2` [PA824, reference compound], the MIC in assay [2] (setting [3]) was 0.15 µg/mL (≈ 0.418 µM).
Turning to `COC(C)(C)C[C@@H]1C[C@H](C)[C@H]2CC[C@H](C)c3c2c1c(C)c1nccnc31` [Compound 6, 14,15-Dihydro-15-methoxy-pseudopteroquinoxaline], the inhibition at 64 µg/mL in assay [1] stood at 99.9%. Also, the IC50 in the assay on Vero cells came to 15 µg/mL (≈ 42.6 µM). The “SI (Selectivity Index)” value in assay [2] came to 0.2. In assay [2] (setting [3]), the MIC is 84 µg/mL (≈ 238 µM).
Regarding `CC(C)=CC1CC(C)C2CCC(C)c3c2c1c(C)c1nc(-c2ccc(F)cc2)oc31` (centres unmarked) [Compound 24], the inhibition at 64 µg/mL in assay [1] is -19%. Besides, in the assay with Vero cells, the cytotoxicity at 128 µg/mL came out at 0% and the half-maximal inhibitory concentration (IC50) is over 31 µg/mL. For the same compound, in assay [2] (setting [3]), the MIC is over 31 µg/mL.

One may read the IC50 as the midpoint of a concentration-inhibition curve.
